Experiment [1] has as its target T1, D(4) dopamine receptor (Homo sapiens, UniProt P21917).
T1 sequence (P21917 whole entry): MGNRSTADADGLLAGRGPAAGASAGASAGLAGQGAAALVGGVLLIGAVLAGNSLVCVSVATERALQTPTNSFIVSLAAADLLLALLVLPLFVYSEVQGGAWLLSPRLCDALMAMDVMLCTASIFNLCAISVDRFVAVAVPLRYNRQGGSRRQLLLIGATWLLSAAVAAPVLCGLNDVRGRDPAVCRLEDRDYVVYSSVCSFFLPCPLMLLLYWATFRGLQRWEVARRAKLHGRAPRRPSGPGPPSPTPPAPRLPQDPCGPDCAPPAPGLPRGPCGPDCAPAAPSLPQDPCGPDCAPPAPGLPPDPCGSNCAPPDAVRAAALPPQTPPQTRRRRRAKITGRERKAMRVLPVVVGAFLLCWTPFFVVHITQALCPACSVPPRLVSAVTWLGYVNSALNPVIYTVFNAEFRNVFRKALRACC
Nature of the experiment: biochemical.
Description: Displacement of [3H]spiperone from human dopamine D4.4 expressed in CHO cell membrane

Experiment [2] deals with T2, D(3) dopamine receptor (Homo sapiens, UniProt P35462). Description: biochemical.
Description: (§1) Displacement of [3H]spiperone from human dopamine D3 expressed in CHO cell membrane
Experiment [3] deals with T3, D(2) dopamine receptor (Homo sapiens, UniProt P14416).
Description: Binding affinity to dopamine D2
Experiment [4] concerns the target T2, D(3) dopamine receptor.
Description: as §1
In experiment [5] the target is T4, 5-hydroxytryptamine receptor 1A (Homo sapiens, UniProt P08908).
T4 sequence (P08908 whole entry): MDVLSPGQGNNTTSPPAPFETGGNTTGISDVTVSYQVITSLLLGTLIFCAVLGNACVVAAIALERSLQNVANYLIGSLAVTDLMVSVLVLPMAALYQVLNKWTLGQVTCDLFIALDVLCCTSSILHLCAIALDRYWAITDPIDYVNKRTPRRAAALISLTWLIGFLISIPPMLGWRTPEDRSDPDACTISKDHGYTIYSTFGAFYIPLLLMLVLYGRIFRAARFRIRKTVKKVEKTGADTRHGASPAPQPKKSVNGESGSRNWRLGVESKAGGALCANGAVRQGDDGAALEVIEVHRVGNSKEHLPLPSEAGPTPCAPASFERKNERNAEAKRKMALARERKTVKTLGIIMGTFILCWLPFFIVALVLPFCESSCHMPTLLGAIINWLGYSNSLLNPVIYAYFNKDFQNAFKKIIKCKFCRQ
Nature of the experiment: Displacement of [3H]8-OH-DPAT from human 5HT1A receptor expressed in CHO cells. The class given is cell-based. (Loss of bound radioactivity is the signal in a displacement assay; it reports binding, not function.)

Experiment [6] deals with T3, D(2) dopamine receptor. Description: Displacement of [3H]spiperone from human dopamine D2(long) expressed in CHO cell membrane.
Experiment [7] deals with D(1A) dopamine receptor (Sus scrofa, UniProt P50130). Description: Displacement of [3H][…] from porcine dopamine D1 in porcine striatal membrane. The class given is cell membranes, Striatum.
For experiment [8], the target named is Serotonin 2 (5-HT2) receptor (Homo sapiens, UniProt P41595+P28223+P28335). Description: Displacement of [3H]ketanserin from human 5HT2 receptor expressed in CHO cells. The class given is cell-based.
Experiment [9] has as its target T3, D(2) dopamine receptor. Nature of the experiment: Displacement of [3H]spiperone from human dopamine D2(short) expressed in CHO cell membrane.

pKi: −log10 of the molar value.

One may read the pKi as the Ki on a negative log10 scale, so that one unit is a factor of ten. A higher pKi goes with a low Ki. Broadly, the Ki is a dissociation constant, usually derived from enzyme kinetics or from competition with a known ligand. Low values mean higher affinity, high ones lower affinity.

T2 sequence (P35462 whole entry): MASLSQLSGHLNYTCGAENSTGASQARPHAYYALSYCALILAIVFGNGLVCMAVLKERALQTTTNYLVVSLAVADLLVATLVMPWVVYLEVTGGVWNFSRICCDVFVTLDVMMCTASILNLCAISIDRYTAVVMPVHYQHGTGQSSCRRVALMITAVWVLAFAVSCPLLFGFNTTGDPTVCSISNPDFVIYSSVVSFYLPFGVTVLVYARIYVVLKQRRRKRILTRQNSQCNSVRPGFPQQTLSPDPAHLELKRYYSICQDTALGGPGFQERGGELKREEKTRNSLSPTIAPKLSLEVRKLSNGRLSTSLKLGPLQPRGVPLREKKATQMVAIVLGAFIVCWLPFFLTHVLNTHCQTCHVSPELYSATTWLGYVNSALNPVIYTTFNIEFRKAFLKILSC
T3 sequence (P14416 whole entry): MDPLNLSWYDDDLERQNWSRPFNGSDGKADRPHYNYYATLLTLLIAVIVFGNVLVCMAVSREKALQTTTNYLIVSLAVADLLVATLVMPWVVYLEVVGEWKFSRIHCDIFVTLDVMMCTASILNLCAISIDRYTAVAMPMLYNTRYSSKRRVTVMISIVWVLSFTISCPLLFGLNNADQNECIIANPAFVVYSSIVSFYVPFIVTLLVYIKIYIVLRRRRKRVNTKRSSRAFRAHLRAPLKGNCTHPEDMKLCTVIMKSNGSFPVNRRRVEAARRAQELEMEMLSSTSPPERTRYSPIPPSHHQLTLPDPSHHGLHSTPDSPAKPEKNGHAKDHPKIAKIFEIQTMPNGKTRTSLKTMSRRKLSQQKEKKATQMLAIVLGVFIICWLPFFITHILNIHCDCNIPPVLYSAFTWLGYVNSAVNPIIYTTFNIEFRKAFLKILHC
D(1A) dopamine receptor, sequence (P50130 whole entry): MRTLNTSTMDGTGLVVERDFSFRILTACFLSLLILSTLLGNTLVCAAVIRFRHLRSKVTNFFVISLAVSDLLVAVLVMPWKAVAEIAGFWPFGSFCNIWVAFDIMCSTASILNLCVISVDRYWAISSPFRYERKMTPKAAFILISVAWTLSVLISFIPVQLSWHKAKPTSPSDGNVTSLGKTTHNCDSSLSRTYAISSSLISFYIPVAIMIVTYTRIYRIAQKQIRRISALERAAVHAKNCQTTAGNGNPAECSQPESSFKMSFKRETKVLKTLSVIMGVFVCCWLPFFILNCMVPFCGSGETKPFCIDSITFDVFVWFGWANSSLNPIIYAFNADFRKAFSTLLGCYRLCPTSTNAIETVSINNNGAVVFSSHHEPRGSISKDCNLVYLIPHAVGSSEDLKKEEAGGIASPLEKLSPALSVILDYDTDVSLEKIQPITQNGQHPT

For `COc1ccc(Cn2nnc(C(=O)NCCCCCN3CCN(c4ccccc4OC)CC3)c2C)cc1`, the results for the pKi in experiment [1], in experiment [2] and in experiment [3] were 6.57, 7.06 and 7.77, respectively.

As for `CCCc1c(C(=O)NCCCCCN2CCN(c3ccccc3OC)CC2)nnn1Cc1ccccc1Br`, the figures for the negative logarithm of the Ki (pKi) in experiment [1], in experiment [2] and in [3] were 7.40, 8.13 and 8.28, respectively.

`COc1ccccc1N1CCN(CCCCNC(=O)c2nnn(Cc3ccccc3)c2C)CC1`: the pKi in experiment [1] is 6.01; in experiment [2], 7.17; in experiment [3] it was 6.64.

As for `OCc1ccc2c(CN3CCN(c4ccc(Cl)cc4)CC3)cnn2c1`, the negative-log Ki (pKi) is 7.71 in [1] and 4.56 in [3].

Consider `O=C(NCCCCN1CCN(c2ccccc2Cl)CC1)c1ccc2ccccc2c1`, for which the values for the pKi in experiment [1], in [2] and in experiment [3] were 6.70, 9.00 and 6.34, respectively.

Turning to `COc1ccccc1N1CCN(CCCCNC(=O)c2cc3cc(C#N)ccc3o2)CC1`, the pKi in [2] was 8.37.

As to `COc1ccccc1N1CCN(CCCCNC(=O)c2cc3cc(C#N)ccc3s2)CC1`, the pKi in experiment [1] is 7.35; in experiment [4], 9.34; in [3] it was 7.17.

Turning to `O=C(NCCCCN1CCN(c2ccccc2Cl)CC1)c1ccc(-c2ccccc2)cc1`, the negative-log Ki (pKi) was 6.62 in experiment [1], 9.55 in experiment [2] and 6.89 in [3].

Regarding `Clc1ccc(N2CCN(Cc3cnn4c(I)cccc34)CC2)cc1`, the pKi in [2] was 5.57; in experiment [3] it was 5.12.

Consider `COc1ccc(C(=O)NCCCCN2CCN(c3ccccc3Cl)CC2)cc1OC`, for which the values for the pKi in experiment [1], in [2] and in experiment [3] were 6.77, 8.51 and 6.55, respectively.

Consider `N#Cc1ccc2cc(C(=O)NCCCCN3CCN(c4cccc(Cl)c4Cl)CC3)[nH]c2c1`, for which the pKi in [1] is 6.20; in experiment [2], 9.45; in [3] it was 6.47.

With `O=C(NCCCCN1CCN(c2cccc(Cl)c2Cl)CC1)c1cc2cc(Br)ccc2o1`, the values for the negative logarithm of the Ki (pKi) in experiment [1], in [2] and in experiment [3] were 5.51, 8.46 and 5.00, respectively.

`COc1ccccc1N1CCN(CCCCNC(=O)c2ccc(-c3cccc([18F])n3)cc2)CC1`: the pKi is 7.55 in experiment [1]; 7.80 in experiment [5]; 9.43 in experiment [2]; 7.57 in experiment [6]; 6.06 in experiment [7]; 7.80 in [9]. The same compound yielded a Ki in [8] of 450 nM.

Take `O=C(NCCCCN1CCN(c2ccccc2Cl)CC1)c1ccc(Cl)cc1`: the negative-log Ki (pKi) in experiment [1] was 6.55; in experiment [2], 8.77; in experiment [3] it was 6.33.

Consider `COc1ccccc1N1CCN(CCCCNC(=O)c2cc3ccc(C#N)cc3[nH]2)CC1`, for which the values for the pKi in experiment [1], in [4] and in [3] were 7.40, 9.60 and 6.80, respectively.

Regarding `C#Cc1ccc2sc(C(=O)NCCCCN3CCN(c4ccccc4OC)CC3)cc2c1`, the pKi in experiment [1] is 7.51; in [2], 9.41; in experiment [3], 6.39.

For `COc1ccccc1N1CCN(CCCCCNC(=O)c2nnn(Cc3ccccc3Br)c2C)CC1`, the values for the pKi in experiment [1], in experiment [2] and in experiment [3] were 7.38, 7.82 and 8.31, respectively.

For the compound `Cc1c(C(=O)NCCCCN2CCN(c3cccc(Cl)c3Cl)CC2)nnn1Cc1ccccc1`, the negative-log Ki (pKi) was 6.55 in [1], 8.37 in [2] and 7.41 in [3].

In the case of `COc1ccc(Cn2nnc(C(=O)NCCCCN3CCN(c4ccccc4OC)CC3)c2C)cc1`, the negative logarithm of the Ki (pKi) in experiment [1] was 6.55; in experiment [2] it was 7.54; in [3] it was 7.26.

Turning to `O=C(NCCCCN1CCN(c2cccc(Cl)c2Cl)CC1)c1cc2cc(Br)ccc2[nH]1`, the values for the negative-log Ki (pKi) in [1], in [2] and in experiment [3] were 6.22, 9.13 and 5.64, respectively.

Consider `COc1ccccc1N1CCN(CCCCCNC(=O)c2nnn(Cc3ccccc3)c2C)CC1`, for which the pKi in experiment [1] is 6.80; in experiment [2] it was 7.80; in experiment [3] it was 8.03.

In the case of `COc1ccccc1N1CCN(CCCCNC(=O)c2ccc(-c3ccc([18F])nc3)cc2)CC1`, the pKi in [1] was 7.47; in experiment [5], 7.68; in experiment [2], 9.35; in [6], 7.82; in experiment [7], 5.89; in [9], 7.92. The compound also registered a Ki in [8] of 760 nM.

`c1ccc(C2CCN(Cc3cnn(-c4ccccc4)c3)CC2)cc1`: the results for the negative-log Ki (pKi) in experiment [1], in experiment [2] and in experiment [3] were 9.23, 7.48 and 7.42, respectively.

As to `CCCc1c(C(=O)NCCCCN2CCN(c3cccc(Cl)c3Cl)CC2)nnn1Cc1ccccc1`, the pKi was 6.66 in [1], 8.62 in experiment [2] and 7.85 in experiment [3].

With `COc1ccccc1N1CCN(CCCCNC(=O)c2cc3cc(Br)ccc3[nH]2)CC1`, the negative-log Ki (pKi) in experiment [1] was 7.80; in experiment [2], 9.61; in [3] it was 6.96.

Regarding `COc1ccccc1N1CCN(CCCCNC(=O)c2cc3cc(C#N)ccc3[nH]2)CC1`, the negative logarithm of the Ki (pKi) in experiment [1] is 7.62; in experiment [2] it was 9.24; in [3], 6.85.

As for `c1ccc(C2CCN(Cc3cn(-c4ccccc4)nn3)CC2)cc1`, the pKi is 8.49 in experiment [1], 7.03 in experiment [2] and 6.66 in [3].

Regarding `CCCc1c(C(=O)NCCCCN2CCN(c3ccccc3OC)CC2)nnn1Cc1ccccc1`, the values for the negative-log Ki (pKi) in [1], in experiment [2] and in [3] were 6.52, 7.96 and 7.24, respectively.

As for `Cc1cccc2c(CN3CCN(c4ccc(Cl)cc4)CC3)cnn12`, the negative logarithm of the Ki (pKi) in [2] was 5.43.

In the case of `C#Cc1ccc2cc(C(=O)NCCCCN3CCN(c4ccccc4OC)CC3)sc2c1`, the negative-log Ki (pKi) in [1] was 6.82; in experiment [2] it was 9.42; in experiment [3], 6.70.

Regarding `CCCc1c(C(=O)NCCCCN2CCN(c3ccccc3OC)CC2)nnn1Cc1ccc(OC)cc1`, the negative logarithm of the Ki (pKi) in [1] was 6.89; in [2] it was 7.89; in [3], 7.37.

On to `COc1ccc(Cn2nnc(C(=O)NCCCCCN3CCN(c4cccc(Cl)c4Cl)CC3)c2C)cc1`, for which the pKi in experiment [1] was 6.54; in [2] it was 7.47; in experiment [3], 8.04.

For `Cc1c(C(=O)NCCCCCN2CCN(c3cccc(Cl)c3Cl)CC2)nnn1Cc1ccccc1`, the negative logarithm of the Ki (pKi) in experiment [1] was 6.60; in experiment [2], 8.07; in experiment [3], 8.00.

Turning to `COc1ccccc1N1CCN(CCCCNC(=O)c2nnn(Cc3ccccc3Br)c2C)CC1`, the negative logarithm of the Ki (pKi) is 7.04 in experiment [1], 7.49 in experiment [2] and 7.21 in [3].

Turning to `O=C(NCCCCN1CCN(c2cccc(Cl)c2Cl)CC1)c1cc2ccccc2[nH]1`, the pKi in [2] is 9.18.

With `CCCc1c(C(=O)NCCCCN2CCN(c3ccccc3OC)CC2)nnn1Cc1ccccc1Br`, the negative logarithm of the Ki (pKi) in experiment [1] is 7.12; in [2], 8.46; in experiment [3], 7.66.

Turning to `COc1ccccc1N1CCN(CCCCNC(=O)c2cc3cc(Br)ccc3o2)CC1`, the pKi is 7.77 in [1], 9.16 in experiment [4] and 7.02 in [3].

The record behind these values is ChEMBL document CHEMBL1141401, “Structure-selectivity investigations of D2-like receptor ligands by CoMFA and CoMSIA guiding the discovery of D3 selective PET radioligands” (J Med Chem, 2007).
